Results reported in patent US11667606B2, “Thyromimetics” (Autobahn Therapeutics, Inc., priority 2019, dated 2023).
pEC50: −log10 of the molar value.

Columns and labels:
[1] = target: T1, TRβ (Homo sapiens, UniProt P10828); assay: Thyroid-hormone reporter-gene assay, TRβ (Gal4 DBD hybrid, luciferase, HEK293); format: cell-based; details: for T3-SI, selectivity index (SI) calculated as EC50 (TRα)/EC50 (TRβ): TRβ over TRα selectivity from reporter-gene EC50 values; for pEC50: reporter cells derived from HEK293, 24 hr incubation, luciferase readout
T1 construct: expressed in transfected cells; host or cells: HEK293
T1 sequence (P10828 217-461 limits assumed): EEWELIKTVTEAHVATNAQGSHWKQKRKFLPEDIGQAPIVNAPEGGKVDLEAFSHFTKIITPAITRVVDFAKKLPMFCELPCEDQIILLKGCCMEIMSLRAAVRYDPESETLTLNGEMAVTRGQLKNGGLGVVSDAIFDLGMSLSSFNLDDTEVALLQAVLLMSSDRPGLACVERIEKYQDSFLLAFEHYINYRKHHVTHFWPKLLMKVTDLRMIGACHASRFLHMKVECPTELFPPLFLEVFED
Procedure: (§1) Compounds were tested for thyroid-hormone receptor activity using TR reporter-gene assays. Reporter cells used in the assays express a TR-receptor hybrid (either TRα or TRβ) in which the native N-terminal DNA binding domain (DBD) has been replaced with that of the yeast Gal4 DBD. The reporter gene, firefly luciferase, is functionally linked to the Gal4 upstream activation sequence (UAS). Both cell lines were derived from human embryonic kidney (HEK293).
(§2) A suspension of reporter cells was prepared in cell recovery medium containing 10% charcoal-stripped FBS, and dispensed into assay plates. The plates were pre-incubated for 6 hours in a cell culture incubator (37° C./5% CO2/85% humidity).
(§3) These intermediate stocks were subsequently diluted directly into compound screening medium containing 10% charcoal-stripped FBS to generate “2×-concentration” treatment media (containing 0.2, 0.4 or 0.8% DMSO).
(§4) At the end of the pre-incubation period, culture media were discarded from the assay plates, and all wells received 100 μl of compound screening medium. 100 μl of each of the previously prepared “2×-concentration” treatment media were dispensed into duplicate assay wells, thereby achieving the desired final treatment concentrations. The final concentration of DMSO in all assay wells was 0.1, 0.2 or 0.4%. Assay plates were incubated for 24 hr in a cell culture incubator (37° C./5% CO2/85% humidity).
(§5) At the 24 h assay endpoint, treatment media were discarded and […] of luciferase detection reagent was added. Relative luminometer units (RLUs) were quantified from each assay well.

[2] = target: T2, TRα (Homo sapiens, UniProt P10827); assay: Thyroid-hormone reporter-gene assay, TRα (Gal4 DBD hybrid, luciferase, HEK293); format: cell-based; details: reporter cells derived from HEK293, 24 hr incubation, luciferase readout
T2 construct: expressed in transfected cells; host or cells: HEK293
T2 sequence (P10827 128-410 isoform P10827-2 limits assumed): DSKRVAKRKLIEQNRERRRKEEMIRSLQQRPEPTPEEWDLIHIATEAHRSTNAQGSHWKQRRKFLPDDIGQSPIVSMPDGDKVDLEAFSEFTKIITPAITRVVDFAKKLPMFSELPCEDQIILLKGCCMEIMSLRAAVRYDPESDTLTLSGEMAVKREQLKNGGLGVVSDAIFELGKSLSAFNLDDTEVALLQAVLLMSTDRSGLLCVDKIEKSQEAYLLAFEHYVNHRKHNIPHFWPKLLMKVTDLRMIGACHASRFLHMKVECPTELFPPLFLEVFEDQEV
Procedure: as §1, §2, §3, §4, §5

SMILES	T3-SI, selectivity index (SI) calculated as EC50 (TRα)/EC50 (TRβ) [1]	pEC50 [1]	pEC50 [2]
O=C(O)COc1cc(Cl)c(Cc2ccc(O)c(Cc3ccsc3)c2)c(Cl)c1 [Compound 121, 2-(3,5-dichloro-4-(4-hydroxy-3-(thiophen-3-ylmethyl)benzyl)phenoxy) acetic Acid]	++ (3X < T3-SI ≤ 30X)	6.00 to 7.00	< 6.00
Cc1cc(OCC(=O)O)cc(Cl)c1Cc1ccc(O)c(-c2cccc(C(F)(F)F)c2)c1 [Compound 64, 2-(3-chloro-4-((6-hydroxy-3′-(trifluoromethyl)-[1,1′-biphenyl]-3-yl)methyl)-5-methylphenoxy)acetic Acid]	++ (3X < T3-SI ≤ 30X)	6.00 to 7.00	6.00 to 7.00
C=C(C)c1cccc(-c2cc(Cc3c(Cl)cc(OCC(=O)O)cc3Cl)ccc2O)c1 [Compound 22, 2-(3,5-dichloro-4-((6-hydroxy-3′-(prop-1-en-2-yl)-[1,1′-biphenyl]-3-yl)methyl)phenoxy)acetic Acid]		< 6.00	< 6.00
COCC(c1ccc(F)cc1)c1cc(Cc2c(Cl)cc(OCC(=O)O)cc2Cl)ccc1O (centres unmarked) [Compound 129, 2-(3,5-dichloro-4-(3-(1-(4-fluorophenyl)-2-methoxyethyl)-4-hydroxybenzyl)phenoxy)acetic Acid]	+++ (T3-SI > 30X)	6.00 to 7.00	< 6.00
Cc1cc(OCC(=O)O)cc(Br)c1Cc1ccc(O)c(-c2cccc(OC(F)F)c2)c1 [Compound 66, 2-(3-bromo-4-((3′-(difluoromethoxy)-6-hydroxy-[1,1′-biphenyl]-3-yl)methyl)-5-methylphenoxy)acetic Acid]	++ (3X < T3-SI ≤ 30X)	7.00 to 8.00	6.00 to 7.00
O=C(O)COc1cc(Cl)c(Cc2ccc(O)c(Cc3ccoc3)c2)c(Cl)c1 [Compound 119, 2-(3,5-dichloro-4-(3-(furan-3-ylmethyl)-4-hydroxybenzyl)phenoxy)acetic Acid]	++ (3X < T3-SI ≤ 30X)	6.00 to 7.00	< 6.00
O=C(O)COc1cc(Cl)c(Cc2ccc(O)c(Cc3cccc(F)c3)c2)c(Cl)c1 [Compound 86, 2-(3,5-dichloro-4-(3-(3-fluorobenzyl)-4-hydroxybenzyl)phenoxy)acetic Acid]	++ (3X < T3-SI ≤ 30X)	< 6.00	< 6.00
O=C(O)COc1cc(Cl)c(Cc2ccc(O)c(-c3cc(Cl)cs3)c2)c(Cl)c1 [Compound 36, 2-(3,5-dichloro-4-(3-(4-chlorothiophen-2-yl)-4-hydroxybenzyl)phenoxy) acetic Acid]	++ (3X < T3-SI ≤ 30X)	< 6.00	< 6.00
Cc1cc(OCC(=O)O)cc(Br)c1Cc1ccc(O)c(C(C)c2ccc(F)cc2)c1 (centres unmarked) [Compound 131, 2-(3-bromo-4-(3-(1-(4-fluorophenyl)ethyl)-4-hydroxybenzyl)-5-methylphenoxy)acetic Acid]	++ (3X < T3-SI ≤ 30X)	> 8.00	7.00 to 8.00
CC(C)C(c1ccc(F)cc1)c1cc(Cc2c(Cl)cc(OCC(=O)O)cc2Cl)ccc1O (centres unmarked) [Compound 104, 2-(3,5-dichloro-4-(3-(1-(4-fluorophenyl)-2-methylpropyl)-4-hydroxybenzyl)phenoxy)acetic Acid]	++ (3X < T3-SI ≤ 30X)	7.00 to 8.00	6.00 to 7.00
O=C(O)COc1cc(Cl)c(Cc2ccc(O)c(CCc3ccc(F)cc3)c2)c(Cl)c1 [Compound 135, 2-(3,5-dichloro-4-(3-(4-fluorophenethyl)-4-hydroxybenzyl)phenoxy)acetic Acid]	++ (3X < T3-SI ≤ 30X)	< 6.00	< 6.00
